Reference: ChEMBL document CHEMBL5665443, “Enzyme Inhibitor Single Concentration assay results for EUbOPEN Chemogenomics Library” (2024)
Where “and” joins values, the source holds several entries; their conditions need not be identical. Equal values may be shown once.

What was measured:
[1] = target: G/T mismatch-specific thymine DNA glycosylase (Homo sapiens) (UniProt Q13569);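 further: human TDG cleavage of quenched duplex DNA oligonucleotides coupled to APE1, strand release read as fluorescence at 594 nm, inhibition of TDG activity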
G/T mismatch-specific thymine DNA glycosylase (Homo sapiens), sequence (Q13569 whole entry): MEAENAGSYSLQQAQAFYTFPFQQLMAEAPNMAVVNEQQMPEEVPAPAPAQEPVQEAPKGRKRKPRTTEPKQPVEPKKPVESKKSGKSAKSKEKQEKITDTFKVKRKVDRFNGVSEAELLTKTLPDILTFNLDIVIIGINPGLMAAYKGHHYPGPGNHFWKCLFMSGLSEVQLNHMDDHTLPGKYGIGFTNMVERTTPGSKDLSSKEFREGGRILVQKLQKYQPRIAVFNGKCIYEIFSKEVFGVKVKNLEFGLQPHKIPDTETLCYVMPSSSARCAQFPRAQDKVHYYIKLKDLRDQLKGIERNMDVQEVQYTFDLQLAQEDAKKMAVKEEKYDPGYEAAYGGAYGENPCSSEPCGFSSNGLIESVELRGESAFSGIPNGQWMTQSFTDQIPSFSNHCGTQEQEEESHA
Description: Inhibition of TDG by quantifying inhibition of TDG-mediated cleavage and dissociation of quenched duplex DNA oligonucleotides, measured as fluorescence at 594 nm. To generate a functional strand incision and increase turn-over this assay is coupled to APE1.

[2] = target: T1, Adenine DNA glycosylase (Homo sapiens) (UniProt Q9UIF7); details: Hit No;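 further: human MUTYH activity read as 594 nm fluorescence from cleavage and release of a quenched DNA duplex, coupled with APE1 for strand incision, lower signal meaning inhibition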
T1 sequence (whole entry): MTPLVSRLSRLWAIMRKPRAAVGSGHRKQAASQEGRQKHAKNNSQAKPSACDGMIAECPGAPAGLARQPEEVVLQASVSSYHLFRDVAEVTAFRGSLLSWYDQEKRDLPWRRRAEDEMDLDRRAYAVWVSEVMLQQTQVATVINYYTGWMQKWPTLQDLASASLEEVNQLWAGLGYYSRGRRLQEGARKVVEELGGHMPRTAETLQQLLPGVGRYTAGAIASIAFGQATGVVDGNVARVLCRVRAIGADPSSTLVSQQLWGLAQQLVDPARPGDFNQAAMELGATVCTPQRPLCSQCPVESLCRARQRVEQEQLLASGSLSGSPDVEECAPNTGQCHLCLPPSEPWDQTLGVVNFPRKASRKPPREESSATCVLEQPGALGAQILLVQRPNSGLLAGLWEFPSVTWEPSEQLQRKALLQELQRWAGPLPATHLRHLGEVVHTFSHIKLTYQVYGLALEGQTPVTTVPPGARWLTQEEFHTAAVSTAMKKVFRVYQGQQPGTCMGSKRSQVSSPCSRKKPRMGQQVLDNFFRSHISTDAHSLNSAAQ
Description: Inhibition of MUTYH by quantifying inhibition of MUTYH-mediated cleavage and dissociation of quenched duplex DNA oligonucleotides, measured as fluorescence at 594 nm. To generate a functional strand incision and increase turn-over this assay is coupled to APE1.

[3] = target: DNA-3-methyladenine glycosylase (Homo sapiens) (UniProt P29372);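 further: enzyme assay where MPG cuts a quenched duplex DNA oligonucleotide probe, paired with APE1 for strand incision and turnover, read as fluorescence at 594 nm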
DNA-3-methyladenine glycosylase (Homo sapiens), sequence (P29372 whole entry): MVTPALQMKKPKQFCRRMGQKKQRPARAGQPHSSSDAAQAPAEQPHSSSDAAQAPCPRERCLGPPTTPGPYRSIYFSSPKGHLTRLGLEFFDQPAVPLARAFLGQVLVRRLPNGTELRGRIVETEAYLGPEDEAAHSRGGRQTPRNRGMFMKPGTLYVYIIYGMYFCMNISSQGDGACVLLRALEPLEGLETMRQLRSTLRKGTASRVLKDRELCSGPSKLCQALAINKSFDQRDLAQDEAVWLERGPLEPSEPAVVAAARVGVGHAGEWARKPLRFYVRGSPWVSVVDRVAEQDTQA
Description: Inhibition of MPG by quantifying inhibition of MPG-mediated cleavage and dissociation of quenched duplex DNA oligonucleotides, measured as fluorescence at 594 nm. To generate a functional strand incision and increase turn-over this assay is coupled to APE1.

[4] = target: T2, Endonuclease III-like protein 1 (Homo sapiens) (UniProt P78549);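 further: enzyme assay tracking NTHL1 cutting and release of a quenched double-stranded DNA oligo substrate, read as fluorescence at 594 nm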
T2 sequence (whole entry): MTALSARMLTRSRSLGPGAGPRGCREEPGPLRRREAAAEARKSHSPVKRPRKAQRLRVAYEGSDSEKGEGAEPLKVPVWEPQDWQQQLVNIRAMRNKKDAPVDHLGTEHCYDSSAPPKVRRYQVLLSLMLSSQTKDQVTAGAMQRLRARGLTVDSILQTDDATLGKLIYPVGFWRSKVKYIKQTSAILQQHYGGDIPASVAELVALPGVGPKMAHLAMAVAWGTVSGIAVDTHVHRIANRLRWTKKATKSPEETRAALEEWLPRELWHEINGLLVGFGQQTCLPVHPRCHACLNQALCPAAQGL
Description: Inhibition of NTHL1 by quantifying inhibition of NTHL1-mediated cleavage and dissociation of quenched duplex DNA oligonucleotides, measured as fluorescence at 594 nm.

[5] = target: T3, Endonuclease 8-like 2 (Homo sapiens) (UniProt Q969S2);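 further: fluorescence at 594 nm reports NEIL2 cutting and release of a quenched double-stranded DNA oligo substrate, reduced signal read as inhibition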
T3 sequence (whole entry): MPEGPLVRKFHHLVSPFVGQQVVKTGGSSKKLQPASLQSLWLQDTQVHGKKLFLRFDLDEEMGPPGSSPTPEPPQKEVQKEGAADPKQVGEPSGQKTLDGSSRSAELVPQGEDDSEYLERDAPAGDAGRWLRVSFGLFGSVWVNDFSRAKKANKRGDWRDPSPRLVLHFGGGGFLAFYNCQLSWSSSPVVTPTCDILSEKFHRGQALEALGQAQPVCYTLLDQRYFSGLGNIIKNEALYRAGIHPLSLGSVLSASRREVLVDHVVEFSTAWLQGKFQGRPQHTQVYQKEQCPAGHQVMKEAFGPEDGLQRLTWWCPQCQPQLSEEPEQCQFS
Description: Inhibition of NEIL2 by quantifying inhibition of NEIL2-mediated cleavage and dissociation of quenched duplex DNA oligonucleotides, measured as fluorescence at 594 nm.

[6] = target: Uracil-DNA glycosylase (Homo sapiens) (UniProt P13051); details: Hit No;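 further: UNG excision on a quenched double-stranded DNA oligo probe, with APE1 added for strand incision and turnover, read as fluorescence at 594 nm as strands separate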
Uracil-DNA glycosylase (Homo sapiens), sequence (P13051 whole entry, the tested form may be a part): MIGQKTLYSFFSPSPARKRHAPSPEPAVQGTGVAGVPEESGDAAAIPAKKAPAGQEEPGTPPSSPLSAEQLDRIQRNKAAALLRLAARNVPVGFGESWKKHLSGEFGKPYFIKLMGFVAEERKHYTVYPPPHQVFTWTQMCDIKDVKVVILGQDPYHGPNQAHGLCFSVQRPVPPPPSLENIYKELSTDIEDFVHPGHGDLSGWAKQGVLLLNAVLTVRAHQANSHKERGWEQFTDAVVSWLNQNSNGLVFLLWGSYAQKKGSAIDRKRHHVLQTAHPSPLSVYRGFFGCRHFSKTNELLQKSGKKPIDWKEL
Description: Inhibition of UNG by quantifying inhibition of UNG-mediated cleavage and dissociation of quenched duplex DNA oligonucleotides, measured as fluorescence at 594 nm. To generate a functional strand incision and increase turn-over this assay is coupled to APE1.

[7] = target: Methyl-CpG-binding domain protein 4 (Homo sapiens) (UniProt O95243);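 further: MBD4 activity read as fluorescence at 594 nm from cleavage and release of a quenched duplex DNA oligonucleotide, with APE1 coupled to incise the strand and raise turnover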
Methyl-CpG-binding domain protein 4 (Homo sapiens), sequence (O95243 whole entry, the tested form may be a part): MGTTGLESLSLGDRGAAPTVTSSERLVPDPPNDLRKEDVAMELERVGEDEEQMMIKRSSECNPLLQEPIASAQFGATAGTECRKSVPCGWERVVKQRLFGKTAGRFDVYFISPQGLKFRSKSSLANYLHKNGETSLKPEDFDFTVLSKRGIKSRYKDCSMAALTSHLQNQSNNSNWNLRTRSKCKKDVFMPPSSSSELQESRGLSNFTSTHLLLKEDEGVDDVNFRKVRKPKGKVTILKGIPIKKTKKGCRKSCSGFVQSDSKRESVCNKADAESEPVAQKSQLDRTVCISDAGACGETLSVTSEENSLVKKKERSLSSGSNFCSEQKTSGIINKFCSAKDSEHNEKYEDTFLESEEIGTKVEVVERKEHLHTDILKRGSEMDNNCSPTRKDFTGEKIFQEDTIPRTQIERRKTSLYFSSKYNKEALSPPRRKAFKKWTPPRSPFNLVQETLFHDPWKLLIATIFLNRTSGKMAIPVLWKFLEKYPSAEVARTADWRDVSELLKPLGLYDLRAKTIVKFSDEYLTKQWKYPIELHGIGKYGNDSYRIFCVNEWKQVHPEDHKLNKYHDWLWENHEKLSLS
Description: Inhibition of MBD4 by quantifying inhibition of MBD4-mediated cleavage and dissociation of quenched duplex DNA oligonucleotides, measured as fluorescence at 594 nm. To generate a functional strand incision and increase turn-over this assay is coupled to APE1.

[8] = target: Endonuclease 8-like 1 (Homo sapiens) (UniProt Q96FI4);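 further: fluorescence at 594 nm from quenched duplex DNA oligonucleotides released by NEIL1 cleavage and strand separation, reported as reduction of this enzyme activity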
Endonuclease 8-like 1 (Homo sapiens), sequence (Q96FI4 whole entry): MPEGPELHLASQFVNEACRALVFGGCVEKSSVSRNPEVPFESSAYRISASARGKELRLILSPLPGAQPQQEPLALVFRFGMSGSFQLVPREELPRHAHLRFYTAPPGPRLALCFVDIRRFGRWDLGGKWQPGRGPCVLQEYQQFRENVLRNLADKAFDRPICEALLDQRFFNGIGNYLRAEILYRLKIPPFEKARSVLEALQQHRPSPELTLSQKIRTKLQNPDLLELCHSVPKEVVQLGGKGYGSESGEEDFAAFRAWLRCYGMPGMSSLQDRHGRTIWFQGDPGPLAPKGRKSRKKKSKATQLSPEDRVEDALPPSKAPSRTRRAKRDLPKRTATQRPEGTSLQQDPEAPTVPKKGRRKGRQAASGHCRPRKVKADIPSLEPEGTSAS
Description: Inhibition of NEIL1 by quantifying inhibition of NEIL1-mediated cleavage and dissociation of quenched duplex DNA oligonucleotides, measured as fluorescence at 594 nm.

[9] = target: T4, Single-strand selective monofunctional uracil DNA glycosylase (Homo sapiens) (UniProt Q53HV7);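 further: enzymatic SMUG1 assay coupled with APE1, reading fluorescence at 594 nm released when a quenched double-stranded DNA oligonucleotide substrate is cleaved and separated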
T4 sequence (whole entry): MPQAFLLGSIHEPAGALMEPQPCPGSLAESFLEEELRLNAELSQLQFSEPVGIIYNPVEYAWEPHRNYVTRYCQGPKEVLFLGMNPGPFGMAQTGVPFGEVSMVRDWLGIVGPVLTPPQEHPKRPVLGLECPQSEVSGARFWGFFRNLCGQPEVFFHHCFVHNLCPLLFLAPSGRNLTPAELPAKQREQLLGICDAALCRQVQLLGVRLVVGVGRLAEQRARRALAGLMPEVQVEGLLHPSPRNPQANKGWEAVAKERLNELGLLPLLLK
Description: Inhibition of SMUG1 by quantifying inhibition of SMUG1-mediated cleavage and dissociation of quenched duplex DNA oligonucleotides, measured as fluorescence at 594 nm. To generate a functional strand incision and increase turn-over this assay is coupled to APE1.

[10] = target: N-glycosylase/DNA lyase (Homo sapiens) (UniProt O15527);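 further: OGG1 cleavage of a quenched duplex DNA oligonucleotide, coupled to APE1 for strand incision, read as fluorescence at 594 nm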
N-glycosylase/DNA lyase (Homo sapiens), sequence (O15527 whole entry): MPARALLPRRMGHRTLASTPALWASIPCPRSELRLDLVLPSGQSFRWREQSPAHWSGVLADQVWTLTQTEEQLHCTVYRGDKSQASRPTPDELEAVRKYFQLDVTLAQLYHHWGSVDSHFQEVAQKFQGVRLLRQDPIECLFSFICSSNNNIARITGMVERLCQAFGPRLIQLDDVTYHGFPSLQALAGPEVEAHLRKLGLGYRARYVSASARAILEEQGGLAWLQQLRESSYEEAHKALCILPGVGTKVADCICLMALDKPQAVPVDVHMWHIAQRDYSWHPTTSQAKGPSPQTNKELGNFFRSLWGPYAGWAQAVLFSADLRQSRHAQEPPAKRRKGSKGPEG
Description: Inhibition of OGG1 by quantifying inhibition of OGG1-mediated cleavage and dissociation of quenched duplex DNA oligonucleotides, measured as fluorescence at 594 nm. To generate a functional strand incision and increase turn-over this assay is coupled to APE1.

[11] = Compound Concentration 10.0 uM, Hit No
[12] = Compound Concentration 10.0 uM, Hit Yes
[13] = Compound Concentration 1.0 uM, Hit No

SMILES	inhibition [1, 11]	inhibition ([2]; Compound Concentration 10.0 uM)	inhibition [3, 11]	inhibition [4, 11]	inhibition [5, 11]	inhibition ([6]; Compound Concentration 10.0 uM)	inhibition [7, 11]	inhibition [8, 11]	inhibition [9, 11]	inhibition [10, 11]	also measured
CC1(C)CCC[C@]2(C)[C@@H](C=O)C(C=O)=CC[C@@H]12	49%	80.5%	14.4%	-1.08%	8.57%	2.98%	54.4%	-1.47%	16.1%		inhibition [10, 12]: 88.4%
CCCN(CCC)CCc1cccc2c1CC(=O)N2	8.55%	10.1%	-1.21%	-4.67%	1.01%	-9.36%	2.3%	7.51%	-5.12%	-5.66%	
C[C@H](N)COC(=O)[C@@H](CCCCN)NC(=O)Cc1c(-c2ccc3ccccc3c2)[nH]c2c1ccc1ccccc12		122% and 125%	58.5% and 61.8%	5.59%	14.7% and 12.7%	4.7% and 1.53%	95.3% and 102%	2.76% and 13.3%	4.71%	-2.94% and 9.96%	inhibition [1, 12]: 88.5% and 91%
Cc1cccc(F)c1C(=O)Nc1cnc(-c2cc3c(cc2Cl)OC(F)(F)O3)cn1	-9.45%	6.43%	18.4%	8.82%	6.27%	-6.24%	7.48%	1.79%	9.65%	-4.79%	
Cn1ncnc1COc1nn2c(-c3cc(F)ccc3F)nnc2cc1C(C)(C)C	6.81%	-2.13%	-8.96%	-7.69%	-8.5%	-5.8%	6.48%	1.64%	-5.72%	-6.92%	
O=C(c1cc(C2CC2)on1)N(C1CCCCC1)C1CCCCC1	14.9%	24.8%	42.7%	10.5%	-3.92%	-1.05%	8.05%	0.306%	-5.04%	0.0968%	
Cn1nc(C(=O)NCc2ccc(C(=O)O)cc2)cc1-c1ccc2[nH]ccc2c1	56.9%	-5.73%	115%	-3.92%	-4.83%	0.276%	70.9%	1.38%	8.36%	0.23%	
O=C1C[C@@H]2OCC=C3CN4CC[C@]56c7ccccc7N1[C@H]5[C@H]2[C@H]3C[C@H]46	11.6%	38.1%	-1.64%	10.5%	-1.88%	-3.11%	11.5%	0.602%	-0.692%	-7.16%	
CN1CCN(c2ccc(Nc3c4ccccc4nc4ccccc34)cc2)CC1		113%				12.9%	88.7%				inhibition [1, 12]: 73%; inhibition [3, 12]: 90.3%; inhibition [4, 12]: 84.8%; inhibition [5, 12]: 90.9%; inhibition [8, 12]: 65.5%; inhibition [9, 12]: 78.7%; inhibition [10, 12]: 84.8%
N[C@@H](CCP(=O)(O)O)C(=O)O	17.7%	-5.97%	-0.846%	12.1%	-3.15%	-0.352%	13%	7.42%	-0.24%	-5.28%	
O=S(=O)(Nc1nnc2cc(OCC34CC5CC(CC(C5)C3)C4)c(C3CC3)cn12)C1CC1		84.7%	62.1%	10.5%	11.9%	12%		6.23%	11.5%		inhibition [1, 12]: 73.8%; inhibition [7, 12]: 80.9%; inhibition [10, 12]: 53%
FC(F)(F)c1ccc(Nc2ncnc3cc(-c4ncccc4C(F)(F)F)ccc23)cc1	25%	26.4%	12.8%	-4.39%	2.71%	1.01%	18.4%	11.7%	19.7%	5.12%	
N#Cc1c(O)nc(SCc2cccc(F)c2F)nc1C1CC1	26.8%	43.4%	5.35%	17.3%	6.5%	-3.9%	31%	-3.76%	14.3%	21.3%	
CC(=O)Nc1cccc(-n2c(=O)n(C3CC3)c(=O)c3c(Nc4ccc(I)cc4F)n(C)c(=O)c(C)c32)c1											inhibition [1, 13]: 45.9%; inhibition ([2]; Compound Concentration 1.0 uM): 15.8%; inhibition [3, 13]: 11.7%; inhibition [4, 13]: -1.31%; inhibition [5, 13]: 1.85%; inhibition ([6]; Compound Concentration 1.0 uM): 7.39%; inhibition [7, 13]: 22.2%; inhibition [8, 13]: 2.25%; inhibition [9, 13]: 18.1%; inhibition [10, 13]: 8.25%
Cc1ccc(C(C)(O)c2nc3ccccc3s2)c(C)c1 (stereo not given)	14.6%	0.661%	10.5%	8.52%	11%	-8.45%	0.731%	7.8%	9.99%	2.68%	
